# Source: patent US10675355B2, “VAR2CSA-drug conjugates” (priority 2013, dated 2020)
# System: Karpas 299 human T cell lymphoma tumor
# Assay: Karpas 299 xenograft efficacy study
# Format: in vivo, mice
# Conditions: IV q2dx3: VAR2-Compound O 12, VAR2 12, Compound 886 0.312 mg/kg
# Experimental: Female C.B-17/IcrHsd-Prkdcscid mice (Harlan Laboratories) were implanted subcutaneously in the back with the Karpas 299 human T cell lymphoma tumor cell line. Karpas 299 was established from the peripheral blood of a person with T cell non-Hodgkin's lymphoma in 1986; now classed as CD30+ anaplastic large cell lymphoma (ALCL). The lab stocks were mycoplasma negative. […] The mean tumor volume on treatment day (day 21) was greater than 150 mm^3. Test articles were administered intravenously on Day 1, 3, and 6 (total of three injections) at the doses indicated in the study grouping table. Body weights and tumor volumes were measured every Monday, Wednesday, and Friday. Animals remained on study until their tumors reached 800 mm^3 in size or they otherwise required euthanasia due to achieving a humane endpoint.
smiles,measurement,setting,value
"CN[C@H](C(=O)N[C@H](C(=O)N(C)[C@H](/C=C(\C)C(=O)NS(=O)(=O)c1ccc(N)cc1)C(C)C)C(C)(C)C)C(C)(C)c1ccccc1 [Compound 886, (S,E)-N-(4-Aminophenylsulfonyl)-2,5-dimethyl-4-((S)—N,3,3-trimethyl-2-((S)-3-methyl-2-(methylamino)-3-phenylbutanamido)butanamido)hex-2-enamide]","tumor volume, two-way ANOVA Bonferroni posttests","VAR2 versus, Study Day 21",ns (P > 0.05 = ns (not significant))
same,"tumor volume, two-way ANOVA Bonferroni posttests","VAR2 versus, Study Day 23",ns (P > 0.05 = ns (not significant))
same,"tumor volume, two-way ANOVA Bonferroni posttests","VAR2 versus, Study Day 26",ns (P > 0.05 = ns (not significant))
same,"tumor volume, two-way ANOVA Bonferroni posttests","VAR2 versus, Study Day 28",* (P < 0.05 = *)
same,"tumor volume, two-way ANOVA Bonferroni posttests","VAR2 versus, Study Day 30",** (P < 0.01 = **)
same,"tumor volume, two-way ANOVA Bonferroni posttests","Vehicle versus, Study Day 21",ns (P > 0.05 = ns (not significant))
same,"tumor volume, two-way ANOVA Bonferroni posttests","Vehicle versus, Study Day 23",ns (P > 0.05 = ns (not significant))
same,"tumor volume, two-way ANOVA Bonferroni posttests","Vehicle versus, Study Day 26",* (P < 0.05 = *)
same,"tumor volume, two-way ANOVA Bonferroni posttests","Vehicle versus, Study Day 28",*** (P < 0.001 = ***)
same,"tumor volume, two-way ANOVA Bonferroni posttests","Vehicle versus, Study Day 30",*** (P < 0.001 = ***)
